Laboratory results as given in the NIST ThermoML archive (doi:10.1016/j.jct.2006.01.013).

Details: 101.33 kPa, Liquid

CCCCCC[n+]1ccn(C)c1.O=S(=O)([N-]S(=O)(=O)C(F)(F)F)C(F)(F)F
Details | mass density [kg/m3]
290.95 K | 1378.1
292.95 K | 1376.3
294.95 K | 1374.4
296.95 K | 1372.6
299 K | 1370.8
301 K | 1369
303 K | 1367.2
305.05 K | 1365.3
307.05 K | 1363.5
